# Data reported in patent US7220784B2, “Substituted stilbenes and their reactions” (priority 2000, dated 2007).
# pIC50: −log10 of the molar value. Read-outs that look alike come from different tables or passages of the source.
# Columns and labels:
# K562 cells = experiment: In situ ultra violet irradiation of dosed K562 cells, IC50; format: cell-based, human; conditions: Homo sapiens, read-out: IC50 K562
# [1] = Photoisomerisation of trans-CA-4 ex situ, composition of mixture (GC); format: physicochemical
# [2] = GC, benzene, 400 W Hg lamp, 0 mins (Table 3)
# [3] = GC, benzene, 400 W Hg lamp, 0.5 mins (Table 3)
# [4] = GC, benzene, 400 W Hg lamp, 1.5 mins (Table 3)
# [5] = GC, benzene, 400 W Hg lamp, 3.0 mins (Table 3)
# [6] = GC, benzene, 400 W Hg lamp, 5.0 mins (Table 3)
# [7] = GC, benzene, 400 W Hg lamp, 6.5 mins (Table 3)
# [8] = GC, benzene, 400 W Hg lamp, 8.0 mins (Table 3)
# [9] = GC, benzene, 400 W Hg lamp, 10.0 mins (Table 3)
# [10] = GC, benzene, 400 W Hg lamp, 12.5 mins (Table 3)
# [11] = GC, benzene, 400 W Hg lamp, 15.0 mins (Table 3)
# [12] = GC, benzene, 400 W Hg lamp, 17.5 mins (Table 3)
# [13] = GC, benzene, 400 W Hg lamp, 20.0 mins (Table 3)
# [14] = photoisomerisation ex situ, 0 mins (Table 5)
# [15] = photoisomerisation ex situ, 0.5 mins (Table 5)
# [16] = photoisomerisation ex situ, 1.0 mins (Table 5)
# [17] = photoisomerisation ex situ, 1.5 mins (Table 5)
# [18] = photoisomerisation ex situ, 2.0 mins (Table 5)
# [19] = photoisomerisation ex situ, 3.0 mins (Table 5)
# [20] = photoisomerisation ex situ, 4.0 mins (Table 5)
# [21] = photoisomerisation ex situ, 5.0 mins (Table 5)
# [22] = photoisomerisation ex situ, 7.5 mins (Table 5)
# [23] = photoisomerisation ex situ, 10.0 mins (Table 5)
# [24] = photoisomerisation ex situ, 12.5 mins (Table 5)
# [25] = photoisomerisation ex situ, 15.0 mins (Table 5)
# [26] = photoisomerisation ex situ, 17.5 mins (Table 5)
# [27] = photoisomerisation ex situ, 20.0 mins (Table 5)
structure (smiles),measurement,setting,value
"COc1ccc(/C=C/c2cc(OC)c(OC)c(OC)c2)cc1O [trans-CA-4, trans-combretastatin A-4]",pIC50,"K562 cells; K562, 0 h, in situ UV 0 mins (Table 6)",5.92
same,pIC50,"K562 cells; K562, 1 min, in situ UV 1 mins (Table 6)",8.44
same,pIC50,"K562 cells; K562, 2 min, in situ UV 2 mins (Table 6)",8.54
same,pIC50,"K562 cells; K562, 0.05 h, in situ UV 3 mins (Table 6)",8.77
same,pIC50,"K562 cells; K562, 4 min, in situ UV 4 mins (Table 6)",8.36
same,pIC50,"K562 cells; K562, 5 min, in situ UV 5 mins (Table 6)",8.57
same,pIC50,"K562 cells; K562, 0.1 h, in situ UV 6 mins (Table 6)",8.54
same,pIC50,"K562 cells; K562, 7 min, in situ UV 7 mins (Table 6)",8.72
same,pIC50,"K562 cells; K562, 8 min, in situ UV 8 mins (Table 6)",8.52
same,pIC50,"K562 cells; K562, 0.15 h, in situ UV 9 mins (Table 6)",8.60
same,pIC50,"K562 cells; K562, 12.5 min, in situ UV 12.5 mins (Table 6)",8.62
same,pIC50,"K562 cells; K562, 0.25 h, in situ UV 15.0 mins (Table 6)",8.70
same,pIC50,"K562 cells; K562, 17.5 min, in situ UV 17.5 mins (Table 6)",8.77
same,pIC50,"K562 cells; K562, 20 min, in situ UV 20.0 mins (Table 6)",8.57
same,pIC50,"K562 cells; K562, in situ UV, repeated experiment, 0 secs (Table 7)",6.24
same,pIC50,"K562 cells; K562, in situ UV, repeated experiment, 5 secs (Table 7)",7.46
same,pIC50,"K562 cells; K562, in situ UV, repeated experiment, 10 secs (Table 7)",7.40
same,pIC50,"K562 cells; K562, in situ UV, repeated experiment, 15 secs (Table 7)",7.70
same,pIC50,"K562 cells; K562, in situ UV, repeated experiment, 20 secs (Table 7)",7.74
same,pIC50,"K562 cells; K562, in situ UV, repeated experiment, 25 secs (Table 7)",7.77
same,pIC50,"K562 cells; K562, in situ UV, repeated experiment, 30 secs (Table 7)",7.82
same,pIC50,"K562 cells; K562, in situ UV, repeated experiment, 35 secs (Table 7)",7.96
same,pIC50,"K562 cells; K562, in situ UV, repeated experiment, 40 secs (Table 7)",7.96
same,pIC50,"K562 cells; K562, in situ UV, repeated experiment, 45 secs (Table 7)",8.05
same,pIC50,"K562 cells; K562, in situ UV, repeated experiment, 50 secs (Table 7)",8.05
same,pIC50,"K562 cells; K562, in situ UV, repeated experiment, 55 secs (Table 7)",8.05
same,pIC50,"K562 cells; K562, in situ UV, repeated experiment, 60 secs (Table 7)",8.10
same,% cis-stilbene,[1]; [2],0%
same,% phenanthrene,[1]; [2],0%
same,% trans-stilbene,[1]; [2],100%
same,% cis-stilbene,[1]; [3],0%
same,% phenanthrene,[1]; [3],0%
same,% trans-stilbene,[1]; [3],100%
same,% cis-stilbene,[1]; [4],0%
same,% phenanthrene,[1]; [4],0%
same,% trans-stilbene,[1]; [4],100%
same,% cis-stilbene,[1]; [5],13%
same,% phenanthrene,[1]; [5],0%
same,% trans-stilbene,[1]; [5],87%
same,% cis-stilbene,[1]; [6],31%
same,% phenanthrene,[1]; [6],0%
same,% trans-stilbene,[1]; [6],69%
same,% cis-stilbene,[1]; [7],45%
same,% phenanthrene,[1]; [7],0%
same,% trans-stilbene,[1]; [7],55%
same,% cis-stilbene,[1]; [8],47%
same,% phenanthrene,[1]; [8],0%
same,% trans-stilbene,[1]; [8],53%
same,% cis-stilbene,[1]; [9],53%
same,% phenanthrene,[1]; [9],0%
same,% trans-stilbene,[1]; [9],44%
same,% cis-stilbene,[1]; [10],68%
same,% phenanthrene,[1]; [10],0%
same,% trans-stilbene,[1]; [10],32%
same,% cis-stilbene,[1]; [11],71%
same,% phenanthrene,[1]; [11],0%
same,% trans-stilbene,[1]; [11],29%
same,% cis-stilbene,[1]; [12],74%
same,% phenanthrene,[1]; [12],4%
same,% trans-stilbene,[1]; [12],22%
same,% cis-stilbene,[1]; [13],73%
same,% phenanthrene,[1]; [13],4%
same,% trans-stilbene,[1]; [13],23%
same,% cis,[1]; [14],0.3%
same,% phenanthrene,[1]; [14],0%
same,% trans,[1]; [14],99.7%
same,% cis,[1]; [15],2.0%
same,% phenanthrene,[1]; [15],0%
same,% trans,[1]; [15],98.0%
same,% cis,[1]; [16],3.9%
same,% phenanthrene,[1]; [16],0%
same,% trans,[1]; [16],96.1%
same,% cis,[1]; [17],6.3%
same,% phenanthrene,[1]; [17],0%
same,% trans,[1]; [17],93.7%
same,% cis,[1]; [18],7.3%
same,% phenanthrene,[1]; [18],0%
same,% trans,[1]; [18],92.7%
same,% cis,[1]; [19],25.7%
same,% phenanthrene,[1]; [19],0%
same,% trans,[1]; [19],74.3%
same,% cis,[1]; [20],37.3%
same,% phenanthrene,[1]; [20],0%
same,% trans,[1]; [20],62.3%
same,% cis,[1]; [21],47.9%
same,% phenanthrene,[1]; [21],0%
same,% trans,[1]; [21],52.1%
same,% cis,[1]; [22],56.6%
same,% phenanthrene,[1]; [22],1.4%
same,% trans,[1]; [22],40.2%
same,% cis,[1]; [23],63.1%
same,% phenanthrene,[1]; [23],2.9%
same,% trans,[1]; [23],34.0%
same,% cis,[1]; [24],64.4%
same,% phenanthrene,[1]; [24],3.4%
same,% trans,[1]; [24],32.2%
same,% cis,[1]; [25],64.6%
same,% phenanthrene,[1]; [25],3.7%
same,% trans,[1]; [25],31.7%
same,% cis,[1]; [26],65.1%
same,% phenanthrene,[1]; [26],4.1%
same,% trans,[1]; [26],30.8%
same,% cis,[1]; [27],65.7%
same,% phenanthrene,[1]; [27],3.7%
same,% trans,[1]; [27],30.6%
